# In article PMC6009902, “1-(Benzo[d]thiazol-2-yl)-3-phenylureas as dual inhibitors of casein kinase 1 and ABAD enzymes for treatment of neurodegenerative disorders” (Journal of Enzyme Inhibition and Medicinal Chemistry, 2018):
# Values joined by “and” are separate entries in the source; they are usually repeats but may differ in a detail not shown here. Equal entries are not always repeated.
# Tests used:
# [1] = molecular target: T1, Human recombinant Casein Kinase 1 epsilon (CK1ε) (Homo sapiens, UniProt P49674); experiment: CK-1ε Kinase-Glo assay; format: biochemical; conditions: for IC50: human recombinant enzyme, mean of two independent experiments, read-out: IC50 CK1ε (µM ± SD)
# T1 construct: purchased Millipore (Millipore Iberica S.A.U.)
# T1 sequence (P49674 whole entry): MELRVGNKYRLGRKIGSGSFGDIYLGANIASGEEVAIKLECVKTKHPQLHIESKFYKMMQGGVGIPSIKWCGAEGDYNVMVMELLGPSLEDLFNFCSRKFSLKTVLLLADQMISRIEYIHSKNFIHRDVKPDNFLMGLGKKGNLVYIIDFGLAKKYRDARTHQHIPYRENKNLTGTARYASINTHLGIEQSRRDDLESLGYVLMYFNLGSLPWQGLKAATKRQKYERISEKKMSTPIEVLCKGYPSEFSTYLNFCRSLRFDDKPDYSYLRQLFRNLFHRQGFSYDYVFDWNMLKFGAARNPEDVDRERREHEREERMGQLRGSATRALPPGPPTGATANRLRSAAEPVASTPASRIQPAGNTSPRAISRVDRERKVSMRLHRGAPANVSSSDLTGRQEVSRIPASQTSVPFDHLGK
# Method: The Kinase-Glo Kit was purchased from Promega (Promega Biotech Ibérica, SL) and was used to screen compounds for activity against CK-1δ and CK1ε. Human recombinant Casein Kinase 1 delta and epsilon was purchased from Millipore (Millipore Iberica S.A.U.). Casein solution from bovine milk, 5%, was purchased from Sigma-Aldrich (St. Louis, MO, USA). ATP and all other reagents were from Sigma-Aldrich (St. Louis, MO, USA). Kinase-Glo assays were performed in assay buffer using black 96-well plates. In a typical assay, 10 µL of test compound (dissolved in DMSO at 1 mM concentration and diluted in advance in assay buffer to the desired concentration) 10 µL (16 ng) of enzyme were added to each well followed by 20 µL of assay buffer containing 0.1% casein as substrate and 4 µM ATP. […] After 60 min incubation at 30 °C the enzymatic reaction was stopped with 40 µL of Kinase-Glo reagent. Glow-type luminescence was recorded after 10 min using a FLUOstar Optima (BMG Labtechnologies GmbH, Offenburg, Germany) multimode reader. The activity is proportional to the difference of the total and consumed ATP. The inhibitory activities were calculated on the basis of maximal activities measured in the absence of inhibitor. […] Each value is the mean of two independent experiments. […]
# [2] = molecular target: T2, Human recombinant Casein Kinase 1 delta (CK1δ) (Homo sapiens, UniProt P48730); experiment: CK-1δ Kinase-Glo assay; format: biochemical; conditions: for IC50: human recombinant enzyme, mean of two independent experiments, read-out: IC50 CK1δ (µM ± SD); for CK1δ inhibition (value in parentheses): screening at fixed concentration of 10 µM
# T2 construct: purchased Millipore (Millipore Iberica S.A.U.)
# T2 sequence (P48730 whole entry): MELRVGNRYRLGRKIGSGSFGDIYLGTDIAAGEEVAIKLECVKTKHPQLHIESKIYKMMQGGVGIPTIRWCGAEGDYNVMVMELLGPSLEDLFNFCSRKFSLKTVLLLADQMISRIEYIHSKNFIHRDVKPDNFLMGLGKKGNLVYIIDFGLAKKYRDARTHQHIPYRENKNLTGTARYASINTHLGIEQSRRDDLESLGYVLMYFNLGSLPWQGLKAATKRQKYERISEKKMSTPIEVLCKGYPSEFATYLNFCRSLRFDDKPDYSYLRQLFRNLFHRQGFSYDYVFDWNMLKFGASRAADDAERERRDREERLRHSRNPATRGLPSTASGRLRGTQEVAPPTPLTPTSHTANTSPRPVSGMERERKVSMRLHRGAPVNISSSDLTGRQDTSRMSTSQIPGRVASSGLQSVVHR
# Method: The Kinase-Glo Kit was purchased from Promega (Promega Biotech Ibérica, SL) and was used to screen compounds for activity against CK-1δ and CK1ε. Human recombinant Casein Kinase 1 delta and epsilon was purchased from Millipore (Millipore Iberica S.A.U.). Casein solution from bovine milk, 5%, was purchased from Sigma-Aldrich (St. Louis, MO, USA). ATP and all other reagents were from Sigma-Aldrich (St. Louis, MO, USA). Kinase-Glo assays were performed in assay buffer using black 96-well plates. In a typical assay, 10 µL of test compound (dissolved in DMSO at 1 mM concentration and diluted in advance in assay buffer to the desired concentration) 10 µL (16 ng) of enzyme were added to each well followed by 20 µL of assay buffer containing 0.1% casein as substrate and 4 µM ATP. […] After 60 min incubation at 30 °C the enzymatic reaction was stopped with 40 µL of Kinase-Glo reagent. Glow-type luminescence was recorded after 10 min using a FLUOstar Optima (BMG Labtechnologies GmbH, Offenburg, Germany) multimode reader. The activity is proportional to the difference of the total and consumed ATP. The inhibitory activities were calculated on the basis of maximal activities measured in the absence of inhibitor. […] Each value is the mean of two independent experiments.
# Compounds were screened against human recombinant enzyme CK1δ at a fixed concentration of 10 µM.
# [3] = PAMPA-BBB assay; conditions: for Pe (10^−6 cm s^−1): 2.5 h
# Method: Prediction of the BBB penetration was evaluated using a parallel artificial membrane permeability assay (PAMPA) using the setup according to Di et al.[12]. Ten commercial drugs, phosphate buffer saline solution at pH 7.4 (PBS), Ethanol and dodecane were purchased from Sigma, Acros organics, Merck, Aldrich and Fluka. […] Filter PDVF membrane units (diameter 30 mm, pore size 0.45 µm) from Symta were used to filtered the samples. A 96-well plate UV reader (Thermo Scientific, Multiskan spectrum) was used for the UV measurements. […] About 100 µL of this compound stock solution was taken and […] of EtOH and 3500 µL of PBS pH = 7.4 buffer were added to reach 30% of EtOH concentration in the experiment. These solutions were filtered. The acceptor 96-well microplate was filled with 180 µL of PBS/EtOH (70/30). The donor 96-well plate was coated with 4 µL of porcine brain lipid in dodecane (20 mg mL^−1) and after 5 min, 180 µL of each compound solution was added. About 1–2 mg of every compound to be determined their ability to pass the brain barrier were dissolved in 1500 µL of EtOH and 3500 µL of PBS pH = 7.4 buffer, filtered and then added to the donor 96-well plate. Then the donor plate was carefully put on the acceptor plate to form a “sandwich”, which was left undisturbed for 2 h and 30 min at 25 °C. During this time the compounds diffused from the donor plate through the brain lipid membrane into the acceptor plate. After incubation, the donor plate was removed. UV plate reader determined the concentration of compounds and commercial drugs in the acceptor and the donor wells. Every sample was analysed at three to five wavelengths, in three wells and in two independent runs. […] 10 quality control compounds (previously mentioned) of known BBB permeability were included in each experiment to validate the analysis set.
# Parallel Artificial Membrane Permeability Assay (PAMPA) is technique developed to predict passive permeability through biological membranes. […] An assay validation was made comparing the reported permeability values of commercial drugs with the experimental data obtained employing this methodology.
# [4] = system: CK1δ; design: method as in PMID 20577972; conditions: standards; cited from earlier work
# [5] = system: CK1ε; design: method as in PMID 20577972; conditions: standards; cited from earlier work
# [6] = molecular target: amyloid-beta binding alcohol dehydrogenase (ABAD); design: method as in PMID 27287370; conditions: cited from earlier work
Structure (SMILES),IC50 [1],SI (Selectivity index = IC50CK1ε/IC50CK1δ) [2],IC50 [2],other results
COc1ccc(NC(=O)Nc2nc3ccc(Cl)cc3s2)cc1C(=O)O [Compound K699],3.49 ± 0.09 µM,7.6,< 0.5 µM and 0.46 µM,–
O=C(Nc1ccc(O)cc1)Nc1nc2ccc(F)cc2s1 [Compound K684],–,–,1.37 ± 0.23 µM,–
"CN(C)CCCN1c2ccccc2Sc2ccccc21 [promazine, reference compound]",–,–,–,"Papp at 2.5 h ([3]; pig, pH 7.4): 8.1 ± 0.1 ×10⁻⁶ cm/s"
O=C(Nc1ccc(Oc2ccccc2)cc1)Nc1nc2ccc(Cl)cc2s1 [Compound K701],–,–,> 10 µM,CK1δ inhibition (value in parentheses) [2]: 37%
COc1cc(OC)c(C=C2C(O)=Nc3ccccc32)c(OC)c1 [IC261],–,–,–,IC50 [5]: 1000 nM; IC50 [4]: 1000 nM
O=C(Nc1ccc(O)c(Cl)c1)Nc1nc2ccc(F)cc2s1 [Compound K690],10.1 ± 0.74 µM,12.0,0.84 ± 0.16 µM,"ability to cross the BBB (in words) [3]: able to cross the BBB by passive permeation; Pe (10^−6 cm s^−1) ([3]; pig, pH 7.4): 13.2 ± 1.4 10^−6 cm s^−1; IC50 [6]: 1890 nM"
O=C(Nc1cccc(O)c1)Nc1nc2ccc(F)cc2s1 [Compound K686],4.02 ± 0.16 µM,4.7,0.86 ± 0.1 µM,–
O=C(Nc1ccc(O)c(C(=O)O)c1)Nc1nc2ccc(Cl)cc2s1 [Compound K693],~2 µM and 2.29 µM,5.7,< 0.5 µM and 0.4 µM,–
O=C(Nc1nc2ccc(Cl)cc2s1)Nc1ccccc1O [Compound K689],3.91 ± 0.4 µM,8.1,< 0.5 µM and 0.48 µM,–
COc1ccc(NC(=O)Nc2nc3ccc(Cl)cc3s2)cc1OC [Compound K697],> 10 µM,>14.5,0.69 ± 0.19 µM,CK1ε inhibition (value in parentheses) ([1]; printed beside IC50 >10 µM): 26%
O=C(Nc1ccc(O)c(C(=O)O)c1)Nc1nc2ccc(F)cc2s1 [Compound K692],8.41 ± 0.71 µM,9.2,0.91 ± 0.31 µM,–
CC(=O)Nc1ccc(NC(=O)Nc2nc3ccc(F)cc3s2)cc1 [Compound K708],–,–,> 10 µM,CK1δ inhibition (value in parentheses) [2]: 39%
COC(=O)c1cc(NC(=O)Nc2nc3ccc(F)cc3s2)ccc1O [Compound K710],–,–,> 10 µM,CK1δ inhibition (value in parentheses) [2]: 24%
O=C(Nc1nc2ccc(F)cc2s1)Nc1ccccc1O [Compound K688],7.33 ± 0.29 µM,8.1,0.9 ± 0.14 µM,–
COc1ccc(NC(=O)Nc2nc3ccc(Cl)cc3s2)cc1 [Compound K695],–,–,8.87 ± 0.73 µM,–

Structure (SMILES),IC50 [1],SI (Selectivity index = IC50CK1ε/IC50CK1δ) [2],IC50 [2],other results
CC(=O)Nc1ccc(NC(=O)Nc2nc3ccc(Cl)cc3s2)cc1 [Compound K709],–,–,1.32 ± 0.15 µM,–
COc1ccc(NC(=O)Nc2nc3ccc(F)cc3s2)cc1OC [Compound K696],–,–,> 10 µM,CK1δ inhibition (value in parentheses) [2]: 23%
COc1ccc(NC(=O)Nc2nc3ccc(F)cc3s2)cc1 [Compound K694],–,–,7.38 ± 0.93 µM,–
O=C(Nc1ccc(O)cc1)Nc1nc2ccc(Cl)cc2s1 [Compound K685],9.01 ± 0.37 µM,15.3,0.59 ± 0.06 µM,–
COC(=O)c1ccc(NC(=O)Nc2nc3ccc(F)cc3s2)cc1 [Compound K706],–,–,> 10 µM,CK1δ inhibition (value in parentheses) [2]: 48%
COC(=O)c1ccc(NC(=O)Nc2nc3ccc(Cl)cc3s2)cc1 [Compound K707],–,–,8.73 ± 0.71 µM,–
COc1ccc(NC(=O)Nc2nc3ccc(F)cc3s2)cc1C(=O)O [Compound K698],–,–,3.37 ± 0.4 µM,–
COC(=O)c1cc(NC(=O)Nc2nc3ccc(Cl)cc3s2)ccc1O [Compound K711],–,–,9.98 ± 0.96 µM,–
O=C(Nc1ccc(C(=O)O)cc1)Nc1nc2ccc(Cl)cc2s1 [Compound K703],3.69 ± 0.41 µM,12.3,< 0.5 µM and 0.3 µM,–
O=C(Nc1ccc(C(=O)O)cc1)Nc1nc2ccc(F)cc2s1 [Compound K702],–,–,2.99 ± 0.36 µM,–
O=C(Nc1ccc(O)c(Cl)c1)Nc1nc2ccc(Cl)cc2s1 [Compound K691],3.01 ± 0.33 µM,4.1,0.73 ± 0.21 µM,"ability to cross the BBB (in words) [3]: able to cross the BBB by passive permeation; Pe (10^−6 cm s^−1) ([3]; pig, pH 7.4): 14 ± 2 10^−6 cm s^−1; IC50 [6]: 1670 nM"
CCOC(=O)c1ccc(NC(=O)Nc2nc3ccc(Cl)cc3s2)cc1 [Compound K705],–,–,> 10 µM,CK1δ inhibition (value in parentheses) [2]: 45%
CCOC(=O)c1ccc(NC(=O)Nc2nc3ccc(F)cc3s2)cc1 [Compound K704],–,–,> 10 µM,CK1δ inhibition (value in parentheses) [2]: 31%
O=C(Nc1ccc(Oc2ccccc2)cc1)Nc1nc2ccc(F)cc2s1 [Compound K700],–,–,> 10 µM,CK1δ inhibition (value in parentheses) [2]: 36%
O=C(Nc1cccc(O)c1)Nc1nc2ccc(Cl)cc2s1 [Compound K687],~2 µM and 1.92 µM,12.0,–,–
